Here are results for 45 compounds from the supplement of paper PMC5412046.

One assay concerns SB.msgc-1. The experiment in a line: AC50 for growth inhibition (viability) (log10 M); higher = less potent. The conditions noted are these: SB.msgc-1 (sporadic gastric cancer). The method in brief:
(§1)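 Hereditary or sporadic patient-derived gastric cancer cells (500 cells in 5 μL medium per 1536 well) received 23 nL compound in DMSO by pintool. Dosing was 11 threefold dilutions starting at a final 46 μM. After 48 h, CellTiter-Glo was added for 30 min at room temperature and luminescence read on a ViewLux. Log half-maximal activity concentration came from a four-parameter fit of DMSO-normalised viability, keeping only high-quality curve classes.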

Another assay has as its system SB.mhdgc-1. The assay is described as above. The conditions noted are these: SB.mhdgc-1 (hereditary c.1380delA CDH1 gastric cancer). The method in brief:
as §1

Counter-ions that a name gives are not always drawn.

Consider `CN[C@@H]1[C@H](O)[C@H](NC)[C@H]2O[C@@]3(O)C(=O)C[C@@H](C)O[C@H]3O[C@@H]2[C@H]1O` [Spectinomycin hydrochloride], for which the “AC50 for growth inhibition (log10 M)” value with SB.msgc-1 was -6.08; in the assay on SB.mhdgc-1 it was -5.93.
In the case of `NCC/1=C/NC(=S)N1[C@H]2CCC3=C(F)C=C(F)C=C3C2` [Nepicastat hydrochloride], the “AC50 for growth inhibition (log10 M)” value in the assay with SB.msgc-1 is -5.03; in the assay on SB.mhdgc-1, -4.98.
Take `O=C(CCCCCCC(=O)Nc1ccccc1)NO` [Vorinostat]: the figures for the “AC50 for growth inhibition (log10 M)” value in the assay with SB.msgc-1 and in the assay with SB.mhdgc-1 were -5.58 and -5.63, respectively.
With `OC1=C(O)C2=C(\C=C/C(=O)O2)C=C1` [Daphnetin], the figures for the “AC50 for growth inhibition (log10 M)” value with SB.msgc-1 and with SB.mhdgc-1 were -4.78 and -5.78, respectively.
Turning to `CCNC(=O)C[C@@H]1\N=C(C2=CC=C(Cl)C=C2)/C3=C(C=CC(=C3)OC)[N]4C(=NN=C14)C` [I-BET762], the “AC50 for growth inhibition (log10 M)” value in the assay on SB.msgc-1 is -5.63; in the assay on SB.mhdgc-1 it was -6.08.
Regarding `c1ccc2c(Cc3c[nH]c4ccccc34)c[nH]c2c1` [Diindolylmethane], the entries for the “AC50 for growth inhibition (log10 M)” value in the assay with SB.msgc-1 and with SB.mhdgc-1 were -5.63 and -6.13, respectively.
In the case of `COC(=O)Nc1nc2cc(C(=O)c3ccc(F)cc3)ccc2[nH]1` [Flubendazole], the “AC50 for growth inhibition (log10 M)” value was -6.23 in the assay on SB.msgc-1 and -5.23 with SB.mhdgc-1.
On to `C[C@@H]1C[C@H]2[C@@H]3CC\C4=C\C(=O)\C=C/[C@]4(C)[C@@]3(Cl)[C@@H](O)C[C@]2(C)[C@@]1(OC(=O)C5=CC=CO5)C(=O)CCl` [Mometasone furoate], for which the entries for the “AC50 for growth inhibition (log10 M)” value with SB.msgc-1 and in the assay with SB.mhdgc-1 were -5.03 and -4.83, respectively.
For `CNC(=O)c1ccc(N2C(=S)N(c3ccc(C#N)c(C(F)(F)F)c3)C(=O)C23CCC3)cc1F` [RD-162], the entries for the “AC50 for growth inhibition (log10 M)” value with SB.msgc-1 and in the assay with SB.mhdgc-1 were -5.13 and -5.08, respectively.
`O=C(NC1CC1)c1cccc(-c2ccc3c(NC(=O)C4CC4)n[nH]c3c2)c1`: the “AC50 for growth inhibition (log10 M)” value in the assay on SB.msgc-1 was -6.03; in the assay on SB.mhdgc-1, -5.93.
On to `COc1ccc(C(=O)CC(=O)c2ccc(C(C)(C)C)cc2)cc1` [Avobenzone], for which the “AC50 for growth inhibition (log10 M)” value is -5.58 with SB.msgc-1 and -6.18 with SB.mhdgc-1.
Turning to `COc1cccc2c1C(=O)c1c(O)c3c(c(O)c1C2=O)C[C@@](O)(C(=O)CO)C[C@@H]3O[C@H]1C[C@H](N)[C@@H](O)[C@H](C)O1` [Epirubicin hydrochloride], the “AC50 for growth inhibition (log10 M)” value with SB.msgc-1 was -6.18; with SB.mhdgc-1, -6.93.
Take `CC[C@@]1(O)C[C@H](O[C@H]2C[C@H](N(C)C)[C@H](O[C@H]3C[C@H](O)[C@H](O[C@H]4CCC(=O)[C@H](C)O4)[C@H](C)O3)[C@H](C)O2)c2c(cc3c(c2O)C(=O)c2c(O)cccc2C3=O)[C@H]1C(=O)OC` [Aclarubicin]: the “AC50 for growth inhibition (log10 M)” value with SB.msgc-1 is -6.28; in the assay with SB.mhdgc-1, -6.78.
Turning to `COc1ccc(/C=C\c2cc(OC)c(OC)c(OC)c2)cc1O` [Combretastatin A-4], the “AC50 for growth inhibition (log10 M)” value was -5.23 with SB.msgc-1 and -8.68 with SB.mhdgc-1.
On the same counts, the results for `C#Cc1cccc(Nc2ncnc3cc(OC)c(OCCCCCCC(=O)NO)cc23)c1` [CUDC-101] are -7.53 and -8.28.
As for `N#CC(=C(/N)Sc1ccccc1N)/C(C#N)=C(\N)Sc1ccccc1N` [U-0126], the “AC50 for growth inhibition (log10 M)” value in the assay on SB.msgc-1 is -4.73; with SB.mhdgc-1 it was -5.88.
Consider `C[C@@H]1C[C@H]2[C@@H]3\C=C(C)/C4=C/C5=C(C[C@]4(C)[C@H]3[C@@H](O)C[C@]2(C)[C@@]1(O)C(=O)COC(C)=O)C=N[N]5C6=CC=CC=C6` [Cortivazol], for which the “AC50 for growth inhibition (log10 M)” value is -5.58 with SB.msgc-1 and -5.53 with SB.mhdgc-1.
As for `NC(=O)NO` [Hydroxyurea], the figures for the “AC50 for growth inhibition (log10 M)” value with SB.msgc-1 and with SB.mhdgc-1 were -6.88 and -6.08, respectively.
On the same counts, the results for `COc1ccc([C@@H]2CNC(=O)C2)cc1OC1CCCC1` [S-(+)-Rolipram] are -5.58 and -5.58.
As for `CC[C@@]1(O)C(=O)OC\C2=C1\C=C\3N(CC4=C3N=C5C=CC=CC5=C4)C2=O` [Camptothecin], the figures for the “AC50 for growth inhibition (log10 M)” value with SB.msgc-1 and with SB.mhdgc-1 were -7.43 and -7.93, respectively.
Take `O=C(CCc1ccc(O)cc1)c1c(O)cc(O)cc1O` [Phloretin]: the “AC50 for growth inhibition (log10 M)” value is -7.13 in the assay on SB.msgc-1 and -7.33 with SB.mhdgc-1.
On to `Cn1c(=O)n(-c2ccc(C(C)(C)C#N)cc2)c2c3cc(-c4cnc5ccccc5c4)ccc3ncc21` [BEZ235], for which the “AC50 for growth inhibition (log10 M)” value in the assay on SB.msgc-1 is -5.33; in the assay with SB.mhdgc-1, -6.88.
Consider `NCC(=O)Nc1ccc(-n2nc(C(F)(F)F)cc2-c2ccc3c(ccc4ccccc43)c2)cc1`, for which the “AC50 for growth inhibition (log10 M)” value is -4.63 in the assay with SB.msgc-1 and -4.68 with SB.mhdgc-1.
With `CC(C)C(=O)Nc1ccc([N+](=O)[O-])c(C(F)(F)F)c1` [Flutamide], the “AC50 for growth inhibition (log10 M)” value with SB.msgc-1 was -5.63; with SB.mhdgc-1 it was -5.83.
In the case of `CC1(C)CC(=O)c2c(C(F)(F)F)nn(-c3ccc(C(N)=O)c(NC4CCC(OC(=O)CN)CC4)c3)c2C1` (stereo not given) [SNX-5422], the “AC50 for growth inhibition (log10 M)” value in the assay with SB.msgc-1 is -7.13; in the assay on SB.mhdgc-1, -6.58.
On the same counts, the results for `Cc1[nH]c2ccccc2c1CCNCc1ccc(/C=C/C(=O)NO)cc1` [Panobinostat] are -6.98 and -6.08.
For `ClC1=CC\2=C(NC(=O)\C(=C2N[C@@H]3CN4CCC3CC4)C5=NC6=C([NH]5)C=CC=C6)C=C1` [CHIR-124], the “AC50 for growth inhibition (log10 M)” value is -6.53 with SB.msgc-1 and -6.08 in the assay with SB.mhdgc-1.
With `COc1ccc(-c2ccc3ncc4c(c3c2)n(-c2ccc(N3CCNCC3)c(C(F)(F)F)c2)c(=O)n4C)cn1` [NVP-BGT226], the “AC50 for growth inhibition (log10 M)” value in the assay with SB.msgc-1 was -5.58; in the assay with SB.mhdgc-1, -6.58.
Consider `Oc1cccc(-c2nc(N3CCOCC3)c3oc4ncccc4c3n2)c1` [PI-103], for which the “AC50 for growth inhibition (log10 M)” value in the assay on SB.msgc-1 is -4.92; in the assay on SB.mhdgc-1, -6.12.
`COc1c(Cl)cc2c([nH]c3cnccc32)c1NC(=O)c1cccnc1C` [MLN-120B]: the “AC50 for growth inhibition (log10 M)” value is -5.23 with SB.msgc-1 and -5.83 in the assay with SB.mhdgc-1.
For the compound `C[C@]1(CO)CN(c2cc(C(=O)Nc3ccc4c(c3)-c3c(c(C(N)=O)nn3-c3ccc(F)cc3)CC4)c(Cl)cn2)C[C@@]1(C)CO` [PF-184], the entries for the “AC50 for growth inhibition (log10 M)” value in the assay on SB.msgc-1 and with SB.mhdgc-1 were -5.08 and -5.43, respectively.
`C[C@]12Cc3cn[nH]c3C[C@@H]1CC[C@@H]1[C@@H]2CC[C@@]2(C)[C@H]1CC[C@]2(C)O` [Stanozolol]: the “AC50 for growth inhibition (log10 M)” value was -5.63 in the assay on SB.msgc-1 and -5.98 in the assay on SB.mhdgc-1.
With `NC(CO)(CO)CCc1ccc(Sc2cccc(OCc3ccccc3)c2)cc1Cl` [KRP 203], the “AC50 for growth inhibition (log10 M)” value with SB.msgc-1 was -4.58; in the assay with SB.mhdgc-1 it was -5.03.
For the compound `C[C@](O)(CS(=O)(=O)c1ccc(F)cc1)C(=O)Nc1ccc(C#N)c(C(F)(F)F)c1` [(R)-Bicalutamide], the “AC50 for growth inhibition (log10 M)” value was -6.03 with SB.msgc-1 and -6.33 in the assay on SB.mhdgc-1.
`COC1=CC(c2cc3ccccc3[nH]2)=N/C1=C/c1[nH]c(C)cc1C` [Obatoclax]: the “AC50 for growth inhibition (log10 M)” value with SB.msgc-1 is -5.33; with SB.mhdgc-1 it was -5.43.
For the compound `CC(C)NC[C@@H](C(=O)N1CCN(c2ncnc3c2[C@H](C)C[C@H]3O)CC1)c1ccc(Cl)cc1` [GDC-0068], the “AC50 for growth inhibition (log10 M)” value with SB.msgc-1 is -5.13; in the assay on SB.mhdgc-1, -6.48.
Turning to `CCCCOc1ccc(CC(=O)NO)cc1` [Bufexamac], the “AC50 for growth inhibition (log10 M)” value in the assay on SB.msgc-1 is -4.88; in the assay with SB.mhdgc-1, -5.43.
With `NC/1=N/C(=O)C2=C([NH]C=C2CCC3=CC=C(C=C3)C(=O)N[C@@H](CCC(O)=O)C(O)=O)N1` [Pemetrexed disodium], the “AC50 for growth inhibition (log10 M)” value in the assay on SB.msgc-1 is -6.23; with SB.mhdgc-1, -6.33.
For the compound `O=C1Nc2cc(Br)ccc2/C1=C1/Nc2ccccc2/C1=N\O` [BIO], the “AC50 for growth inhibition (log10 M)” value in the assay on SB.msgc-1 was -4.98; in the assay with SB.mhdgc-1, -4.78.
On to `COc1cc2ncnc(-n3nc(-c4ccccn4)nc3N)c2cc1OC`, for which the “AC50 for growth inhibition (log10 M)” value in the assay with SB.msgc-1 is -4.78; with SB.mhdgc-1, -5.03.
For `CC1(C)O[C@@H]2C[C@H]3[C@@H]4C[C@H](F)C5=CC(=O)C=C[C@]5(C)[C@@]4(F)[C@@H](O)C[C@]3(C)[C@]2(C(=O)CO)O1` [Fluocinolone acetonide], the “AC50 for growth inhibition (log10 M)” value was -4.93 in the assay on SB.msgc-1 and -5.33 in the assay with SB.mhdgc-1.
Consider `CC[C@@H]1C(=O)N(C)c2cnc(Nc3ccc(C(=O)NC4CCC(N5CCN(CC6CC6)CC5)CC4)cc3OC)nc2N1C(C)C` (stereo not given in full) [Volasertib], for which the “AC50 for growth inhibition (log10 M)” value in the assay on SB.msgc-1 was -7.03; in the assay on SB.mhdgc-1, -5.08.
Take `O=C(Nc1ccc([N+](=O)[O-])cc1Cl)c1cc(Cl)ccc1O` [Niclosamide]: the entries for the “AC50 for growth inhibition (log10 M)” value in the assay with SB.msgc-1 and in the assay on SB.mhdgc-1 were -5.38 and -5.88, respectively.
On the same counts, the results for `CCCCC(C)(C)[C@H](O)/C=C/[C@H]1[C@H](O)CC(=O)[C@@H]1C/C=C\CCCC(=O)O` [16,16-dimethyl PGE2] are -4.63 and -4.68.
For `COc1cc2c(NC3CCN(C(C)C)CC3)nc(C3CCCCC3)nc2cc1OCCCN1CCCC1` [UNC-0638], the figures for the “AC50 for growth inhibition (log10 M)” value with SB.msgc-1 and in the assay with SB.mhdgc-1 were -4.78 and -5.58, respectively.
